How the values were obtained:
[1] = tested on: Myelin Basic Protein (MBP); experiment: Ex.7 neuroprotective HIE rat model: myelin basic protein staining; format: in vivo; conditions: vs vehicle
From the text: FIG. 21. Myelin Basic Protein (MBP) staining of brain coronal sections in rat pups that were pre-treated with estetrol. Brains were removed upon sacrifice at postnatal day 14 and paraformaldehyde-fixed and paraffin-embedded brain samples were coronally sectioned at the hippocampus region. The sections were processed for detection of white matter damage through immunohistological staining with anti-MBP antibody. (A-F) MBP staining of brain coronal sections (scale bar: 2 mm) is shown. (G-L) MBP staining of cingulum of the left hemisphere is (scale bar: 2 mm) shown. (M) The ratio of the MBP positive areas OD ratio was calculated as the MBP positive area OD of the ipsilateral hemisphere divided by the MBP positive area OD of the contralateral hemisphere. 10 samples from each study group were analyzed. The ratio of the MBP positive area OD in the Sham group was considered by default as 1.0.
The sections were processed for immunohistochemical detection of neuronal myelin basic protein disruption. For antigen retrieval, the sections were heated in 10 mmol/L citrate buffer (pH 6.0) at 100° C. for 10 min. […] 10 samples from each study group of both study designs were analyzed with the aid of an image scanner (Nanozoomer Virtual Microscopy, Hamamatsu, Tokyo, Japan) and ImageJ software (NIH, USA). The MBP positive areas optical densities in the ipsilateral and contralateral hemispheres were measured. […]

[2] = tested on: glial fibrillary acidic protein (GFAP); experiment: Ex.8 therapeutic HIE rat model: blood serum GFAP ELISA; format: in vivo; conditions: 10 mg/kg/day E4, PND14
Method: To study the therapeutic effect of estetrol, newborn rat pups were assigned to one of the following 14 groups at postnatal day 7 (FIG. 23(B)): Sham group (n=12), Vehicle (n=15), 5 mg/kg/day E4 (n=11), 10 mg/kg/day E4 (n=11), 5 mg/kg/day E4+1.6 mg/kg/day PROG (n=11), 10 mg/kg/day E4+1.6 mg/kg/day PROG (n=11), 5 mg/kg/day E4+16 mg/kg/day PROG (n=11), 10 mg/kg/day E4+16 mg/kg/day PROG (n=13), 5 mg/kg/day E4+136 ng//kg/day E2 (n=11), 10 mg/kg/day E4+136 ng/kg/day E2 (n=11), 5 mg/kg/day E4+1.6 mg/kg/day PROG+136 ng/kg/day E2 (n=12), 10 mg/kg/day E4+1.6 mg/kg/day PROG+136 ng/kg/day E2 (n=11), 5 mg/kg/day E4+16 mg/kg/day PROG+136 ng/kg/day E2 (n=11), 10 mg/kg/day E4+16 mg/kg/day PROG+136 ng/kg/day (n=12) groups. […] After surgery, the pups were returned to their dams and allowed to recover for 1 hour. The pups were then placed in a humidified hypoxic in vivo cabinet (CoyLab). Hypoxia was produced by the inhalation of 11%-8% of oxygen balanced by nitrogen at decreased concentration of oxygen for 20 minutes, followed by inhalation of 8% oxygen and 92% nitrogen at constant concentration for 35 minutes. All the manipulations were performed at 37° C. Upon retrieval from the hypoxia chamber the rat pups were injected ip once either by vehicle (vehicle group) or by in accordance to the group assignment. […]

C[C@]12CC[C@@H]3c4ccc(O)cc4CC[C@H]3[C@@H]1[C@@H](O)[C@@H](O)[C@@H]2O [E4, 1,3,5(10)-estratrien-3,15α,16α,17β-tetrol]
ratio of the MBP-positive area OD ([1]; 5 mg/kg/day E4 pre-treated): significantly higher | ratio of the MBP-positive area OD ([1]; 50 mg/kg/day E4 pre-treated): significantly higher | GFAP protein concentration in blood serum [2]: 10806.52 ± 1015.19 pg/mL

Reference: patent publication US9808470B2, “Estrogenic components for use in the treatment of neurological disorders” (UNIVERSITE DE LIEGE, priority 2012, dated 2017)
